These results are taken from patent US7285564B2, “Substituted 4-amino-1-(pyridylmethyl)piperidine and related compounds” (Theravance, Inc., priority 2002, dated 2007).

One may read the Ki as the equilibrium dissociation constant of an inhibitor or competing ligand from its target.

The assay addresses T1, hM2 receptor (Homo sapiens, UniProt P08172).
T1 construct: expressed in transfected cells; membranes prepared
T1 sequence (P08172 1-466): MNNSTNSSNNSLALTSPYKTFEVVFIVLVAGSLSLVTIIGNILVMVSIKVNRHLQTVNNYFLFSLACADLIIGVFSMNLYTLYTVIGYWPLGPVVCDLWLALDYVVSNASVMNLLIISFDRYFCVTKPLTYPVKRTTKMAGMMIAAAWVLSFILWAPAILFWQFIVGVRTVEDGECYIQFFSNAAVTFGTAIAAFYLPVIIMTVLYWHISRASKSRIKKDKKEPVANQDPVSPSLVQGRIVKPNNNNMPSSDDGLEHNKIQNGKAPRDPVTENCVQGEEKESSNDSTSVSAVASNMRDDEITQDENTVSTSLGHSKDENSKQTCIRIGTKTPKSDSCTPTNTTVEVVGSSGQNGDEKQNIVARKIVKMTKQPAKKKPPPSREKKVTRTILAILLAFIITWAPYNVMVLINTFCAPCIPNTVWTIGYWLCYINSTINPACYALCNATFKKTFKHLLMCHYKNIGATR
Nature of the assay: Blockade of agonist-mediated inhibition of cAMP accumulation. The note with it: CHO-K1 cells expressing the hM2 receptor; read-out: Ki for blockade of oxotremorine-inhibition of forskolin-mediated cAMP accumulation. The assay is classed as cell-based. The method, then: In this assay, the functional potency of a test compound was determined by measuring the ability of the test compound to block oxotremorine-inhibition of forskolin-mediated cAMP accumulation in CHO-K 1 cells expressing the hM2 receptor.
cAMP assays were performed in a radioimmunoassay format using the Flashplate Adenylyl Cyclase Activation Assay System with ^125]-cAMP (NEN SMP004B, PerkinElmer Life Sciences Inc., Boston, Mass.), according to the manufacturer's instructions.
CHO-K1 cells stably expressing cloned human M2 muscarinic receptors were grown to near confluency in a 5% CO2, 37° C. incubator in medium consisting of HAM's F-12 supplemented with 10% FBS (Fetal Bovine Serum) and 250 μg/mL Geneticin. […] The cell pellet was then re-suspended in 10 mL dPBS, and the cells were counted with a Coulter Z1 Dual Particle Counter (Beckman Coulter, Fullerton, Calif.). […]
Reactions were incubated for 10 minutes at 37° C. and stopped by addition of 100 μL ice-cold detection buffer. Plates were sealed, incubated overnight at room temperature and counted the next morning on a PerkinElmer TopCount liquid scintillation counter (PerkinElmer Inc., Wellesley, Mass.). The amount of cAMP produced (pmol/well) was calculated based on the counts observed for the samples and cAMP standards, as described in the manufacturer's user manual. […]
In general terms: Cyclic AMP is a second messenger, typically raised through Gs and lowered through Gi signalling.

`COc1ccncc1CN1CCC(N(CCCCCCCN2CC[C@@H](C(C(N)=O)(c3ccccc3)c3ccccc3)C2)C(C)C)CC1` [Example 1]: the inhibitory constant (Ki) was less than 1 nM.
